The values below come from PubChem BioAssay (NCI).

Holding throughout (assay): NCI-60 cell line screen, 48 h
Test [1] relates to A498 renal.
Test [2] concerns A549 NSCLC.
In test [3] the test system is HOP-92 NSCLC.
The test system of test [4] is MCF7 breast.
Test [5] concerns MOLT-4 leukemia.
In test [6] the test system is NCI/ADR-RES ovarian.
In test [7] the test system is SK-MEL-28 melanoma.
Test [8] deals with U251 CNS.

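Results reflect a 48-hour exposure of cells in 96-well plates to compound at five concentrations. Here, GI50 denotes the concentration required for 50% inhibition of growth. The concentration for full growth arrest is given as TGI.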 Bounds are passed on as bounds.

`COc1ccc(CNC(=O)c2ccc(-c3cc(-c4nnc(C)o4)ccc3C)cc2)cc1`: the GI50 is 8.22 µM in test [1]; 22.8 µM in test [2]; 2.11 µM in test [3]; 9.86 µM in test [4]; 15.6 µM in test [5]; 16.1 µM in test [6]. Further, the GI50 in test [7] and in test [8] was more than 25 µM each time. Moreover, the TGI in test [1], in test [2], in test [3], in test [4], in test [5] and in test [6] was more than 25 µM in each case. The TGI in test [7] and in test [8] was more than 25 µM in each case.
In the case of `Cc1cc([C@H](C)Nc2nccc(N3C(=O)OC[C@@H]3[C@H](C)F)n2)ncc1-c1ccnc(C(F)(F)F)c1`, the GI50 in test [1] is 15.6 µM; in test [2] it was 29.8 µM; in test [3], 14.9 µM; in test [4], 26.7 µM; in test [5] it was 34.6 µM; in test [6], 23.3 µM. Besides, the GI50 in test [7] was 48.8 µM; in test [8] it was 39.5 µM. The TGI is 92.1 µM in test [1]; more than 100 µM in test [2]; more than 100 µM in test [3]; more than 100 µM in test [4]; more than 100 µM in test [5]; more than 100 µM in test [6]. Further, the TGI in test [7] and in test [8] was more than 100 µM in each case.
For the molecule `C/C(=N\O)[C@H]1CC[C@@]2(C)[C@@H]3CC[C@H]4C(C)(C)/C(=N/O)CC[C@@]45CC35CC[C@]12C` (stereo partly drawn), the GI50 in test [1] is 2.46 µM; in test [2], 3.92 µM; in test [3], 2.09 µM; in test [4], 5.82 µM; in test [5] it was 3.26 µM; in test [6], 2.76 µM. Also, the GI50 was 4.34 µM in test [7] and 3.51 µM in test [8]. Also, the TGI was 5.87 µM in test [1]; 9.59 µM in test [2]; 5.45 µM in test [3]; more than 16.7 µM in test [4]; more than 16.7 µM in test [5]; 7.93 µM in test [6]. Besides, the TGI in test [7] stood at 14.2 µM; in test [8] it was 6.81 µM.
Consider `CCOC(=O)C(=Cc1c(-c2ccccc2)[nH]c2ccccc12)C(=O)OCC`, for which the GI50 in test [1] is 15.8 µM; in test [2] it was 6.34 µM; in test [3] it was 5.47 µM; in test [4], 4.49 µM; in test [5] it was 3.81 µM; in test [6], 2.84 µM. For the same molecule, the GI50 in test [7] was 7.4 µM; in test [8] it was 4.91 µM. For the same molecule, the TGI is 55.6 µM in test [1]; 24.5 µM in test [2]; more than 29.8 µM in test [3]; 18 µM in test [4]; 18.8 µM in test [5]; 14.6 µM in test [6]. The figures for the TGI in test [7] and in test [8] were 21.6 µM and 35.6 µM, respectively.
For `Cc1cc2c(-c3nc4ccccn4c3NC34CC5CC(CC(C5)C3)C4)c(O)c(O)cc2c(O)c1-c1c(C)cc2c(-c3nc4ccccn4c3NC34CC5CC(CC(C5)C3)C4)c(O)c(O)cc2c1O`, the GI50 in test [1] is 0.817 µM; in test [2] it was 0.255 µM; in test [3], 0.616 µM; in test [4], 0.175 µM; in test [5], 0.11 µM; in test [6] it was 1.05 µM. Also, the results for the GI50 in test [7] and in test [8] were 0.459 µM and 0.106 µM, respectively. For the same molecule, the TGI in test [1] is more than 25 µM; in test [2] it was more than 25 µM; in test [3], 1.88 µM; in test [4], 4.28 µM; in test [5], 10.4 µM; in test [6] it was more than 25 µM. Further, the TGI in test [7] worked out at 4.69 µM; in test [8], 3.3 µM.
On to `COc1ccc(-c2nn(-c3cccc(Cl)c3)cc2/C=C2\C(=N)N(c3ccccc3)N=C2N)cc1`, for which the GI50 in test [1] is 11.2 µM; in test [2], 0.54 µM; in test [3], 22.4 µM; in test [4] it was 2.2 µM; in test [5], 0.511 µM; in test [6], 1.32 µM. In addition, the GI50 in test [7] was 6.59 µM; in test [8] it was 3 µM. In addition, the TGI is more than 78.8 µM in test [1]; more than 82.2 µM in test [2]; more than 81.4 µM in test [3]; 33.5 µM in test [4]; 22.3 µM in test [5]; more than 48.9 µM in test [6]. Besides, the TGI was more than 100 µM in test [7] and 35.2 µM in test [8].
Consider `COc1ccc2nc3cc(Cl)ccc3c(Nc3ccc(O)c(CN4CCCC4)c3)c2c1`, for which the GI50 was 2.89 µM in test [1]; 1.99 µM in test [2]; 3.92 µM in test [3]; 1.32 µM in test [4]; 2.43 µM in test [5]; 1.93 µM in test [6]. For the same molecule, the values for the GI50 in test [7] and in test [8] were 1.98 µM and 2.15 µM, respectively. In addition, the TGI in test [1] was determined as 12.2 µM; in test [2], 4.06 µM; in test [3] it was 16 µM; in test [4], 2.87 µM; in test [5], 11.4 µM; in test [6], 4.54 µM. In addition, the TGI in test [7] worked out at 3.46 µM; in test [8] it was 4.44 µM.
As for `NC(=O)c1c(NC(=O)c2cccc(C(F)(F)F)c2)sc2c1CCC(=O)C2`, the GI50 is 3.33 µM in test [1]; 1.88 µM in test [2]; 0.985 µM in test [3]; 0.203 µM in test [4]; 0.404 µM in test [5]; 0.528 µM in test [6]. The GI50 in test [7] was 1 µM; in test [8], 0.307 µM. The TGI in test [1] is more than 100 µM; in test [2] it was more than 100 µM; in test [3], 3.47 µM; in test [4], more than 100 µM; in test [5], more than 20.2 µM; in test [6], 7.69 µM. Further, the values for the TGI in test [7] and in test [8] were 15.2 µM and 16.6 µM, respectively.
For the molecule `CC(=O)c1c(Nc2ccc(F)c(F)c2F)[nH]c2c(F)cc(F)cc2c1=O`, the GI50 in test [1] is 0.206 µM; in test [2] it was 0.382 µM; in test [3], 0.116 µM; in test [4], 0.283 µM; in test [5] it was 0.425 µM; in test [6], 0.322 µM. For the same molecule, the GI50 in test [7] is 0.356 µM; in test [8] it was 0.343 µM. Also, the TGI was 0.575 µM in test [1]; more than 41.8 µM in test [2]; 0.466 µM in test [3]; 13.5 µM in test [4]; 34.5 µM in test [6]; 3.57 µM in test [7]. Moreover, in test [8], the TGI turned out to be 20.1 µM.
